The text below walks through data of patent US6479491B1, “Disubstituted morpholine, oxazepine or thiazepine derivatives, their preparation and their use as dopamine d4 receptor antagonists” (Neurosearch A/S, priority 1996, dated 2002).

Molecules are shown by their SMILES. pIC50: −log10 of the molar value. Counter-ions that a name gives are not always drawn.

For data set [1], the target named is T1, D4.2 Dopamine Receptors (Human Recombinant) (Homo sapiens, UniProt P21917, DEL265-296).
T1 construct: purchased RBI D-195; host or cells: Chinese Hamster Ovary (CHO) cells, transfected; supplied as frozen membranes
T1 sequence (P21917 with tags, fused parts or gaps DEL265-296): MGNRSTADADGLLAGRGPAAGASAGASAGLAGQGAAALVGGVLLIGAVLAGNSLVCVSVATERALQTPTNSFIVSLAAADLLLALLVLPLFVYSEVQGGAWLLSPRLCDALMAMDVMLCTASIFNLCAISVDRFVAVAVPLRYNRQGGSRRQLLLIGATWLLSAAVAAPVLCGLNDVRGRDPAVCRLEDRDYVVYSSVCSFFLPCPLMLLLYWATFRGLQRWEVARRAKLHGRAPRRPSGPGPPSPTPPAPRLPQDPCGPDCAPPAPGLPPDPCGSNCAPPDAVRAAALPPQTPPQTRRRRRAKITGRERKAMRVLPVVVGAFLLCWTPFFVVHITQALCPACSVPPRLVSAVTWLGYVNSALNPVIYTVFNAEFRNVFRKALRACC
The data set is described as follows: In vitro inhibition of 3H-spiperone binding to D4.2 dopamine receptors (human recombinant). The note with it: for pIC50: IC50 for inhibition of specific 3H-spiperone (0.5 nM) binding, membranes of CHO cells transfected with human recombinant D4.2 receptor. Here is the method: II) In Vitro Inhibition of ^3H-spiperone Binding to D4.2 Dopamine Receptors (Human Recombinant)
Membranes are suspended in 10 mM Tris-HCl (pH 7.2) containing 2 mM EDTA, and stored tightly sealed at −80° C.
Asssay: The membranes are thawed and diluted in incubation buffer (50 mM Tns-HCl, pH 7.4, containing 120 mM NaCl, 5 mM KCl, 5 mM MgCl2 and 1 mM EDTA) —0.25 ml of membranes to 4.75 ml of incubation buffer. Aliquots of 100 μl of diluted membranes are added to 100 μl of test solution and 50 μl of ^3H-spiperone (0.5nM, final concentration). Finally, 750 μl incubation buffer is added and the assay mixture is incubated for 60 min at 25° C. Non-specific binding is determined using haloperidol (1 μM, final concentration). After incubation the assay is terminated by rapid filtration over GF/C glass fibre filters (presoaked in 0.1% PEI for at least 20 min), then washed twice with 5 ml ice cold 50 mM Tris-HCl in 0.9% NaCl at pH 7.4. The amount of radioactivity on the filters is determined by conventional liquid scintillation counting. Specific binding is total binding minus non-specific binding.

Data set [2] has as its target T2, D2 dopamine Receptors (Rattus norvegicus, UniProt P61169).
T2 construct: Corpus Striatum from male Wistar rats (150-200 g) is homogenized; from tissue; host or cells: rat corpus striatum
The data set is described as follows: In vitro inhibition of 3H-spiperone binding to D2 dopamine receptors. The note with it: for pIC50: IC50 for inhibition of specific 3H-spiperone (0.2 nM) binding, corpus striatum of male Wistar rats. Here is the method: I) In vitro Inhibition of ^3H-spiperone Binding to D2 dopamine Receptors
Tissue preparation: Preparations are performed at 0-4° C. unless otherwise indicated. Corpus Striatum from male Wistar rats (150-200 g) is homogenized for 5-10 sec in 10 ml KH2PO4 (50 mM, pH 7.4) using an Ultra-Turrax homogenizer. The suspension is centrifuged at 27,000×g for 15 min. The supematant is discarded and the pellet is resuspended in 50 mM KH2PO4, pH 7.4 (2000 ml per g of original tissue) and used for binding assays.
Assay: Aliquots of 0.5 ml tissue are added to 25 μl of test solution and 25 μl of ^3H-spiperone (0.2 nM, final concentration), mixed and incubated for 20 min at 37° C. Non-specific binding is determined using butadamol (1 μM, final concentration). After incubation the samples are placed on ice for 10 min. The assay is terminated by addition of 5 ml of ice-cold buffer and poured directly onto Whatman GF/C glass fibre filters (presoaked in 0.1% PEI for at least 20 min) under suction and immediately washed with 5 ml ice-cold buffer. The amount of radioactivity on the filters is determined by conventional liquid scintillation counting. Specific binding is total binding minus non-specific binding.

T2 sequence (P61169 whole entry): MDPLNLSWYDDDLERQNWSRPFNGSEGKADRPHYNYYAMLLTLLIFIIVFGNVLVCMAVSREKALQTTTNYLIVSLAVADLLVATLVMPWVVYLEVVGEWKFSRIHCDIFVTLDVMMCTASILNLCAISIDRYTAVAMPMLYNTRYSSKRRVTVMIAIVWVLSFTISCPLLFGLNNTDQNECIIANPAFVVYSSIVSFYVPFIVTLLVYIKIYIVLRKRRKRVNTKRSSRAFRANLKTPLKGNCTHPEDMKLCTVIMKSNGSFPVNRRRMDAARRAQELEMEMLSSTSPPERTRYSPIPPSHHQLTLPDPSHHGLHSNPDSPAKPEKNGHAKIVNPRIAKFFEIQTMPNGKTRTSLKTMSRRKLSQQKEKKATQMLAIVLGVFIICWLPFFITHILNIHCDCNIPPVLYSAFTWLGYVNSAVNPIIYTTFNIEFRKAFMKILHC

On to `COc1cc(Cl)ccc1OCC1CN(Cc2ccc(Cl)cc2)CCO1` (racemic) [(±)-4-(4-Chlorobenzyl)-2-[(4-chloro-2-methoxyphenoxy)methyl]morpholine oxalic acid salt], for which the results for the pIC50 in data set [1] and in data set [2] were 8.40 and less than 5.00, respectively.
With `CCOc1ccccc1OCC1CNCCO1` (stereo not shown) [Viloxazine, 2-[(2-ethoxy-phenoxy)methyl]morpholine, reference compound], the “affinity for dopamine D4 receptors (in words)” value in data set [1] (qualitative statement) is reported as “no or only low affinity”. Besides, the “affinity for dopamine D2 receptors (in words)” value in data set [2] (qualitative statement) was “no or only low affinity”.
As for `COc1cc(Cl)ccc1OCC1CN(Cc2ccc(Cl)cc2)CCCO1` (racemic) [(±)-2-[(4-chloro-2-methoxyphenoxy)methyl]-4-(4-chlorobenzyl)perhydro oxazepine oxalic acid salt], the values for the pIC50 in data set [1] and in data set [2] were 8.60 and less than 5.00, respectively.
For `COc1ccc(N)cc1OCC1CN(Cc2ccc(Cl)cc2)CCO1.O=C(O)C(=O)O` (racemic), the melting point (as a rule, the temperature of the solid-liquid transition) was 80 to 110 °C.
